Results: patent US20210113586A1, “NEW USE AND METHODS OF MODULATING IMMUNE RESPONSES” (DIAMYD MEDICAL AB, priority 2018, published 2021)

Tests used:
responder CD4+ T cells = assay: Multiplex PEA of cytokines released into culture medium by responder CD4+ T cells; type: cell-based, human
Description: The proliferation of freshly isolated human PBMCs or CD4^+ T cells was evaluated with MTT (3-(4,5-Dimethylthiazol-2-yl)-2,5-Diphenyltetrazolium Bromide) assay (Ring et al., 2012). Cells were suspended in complete medium (RPMI 1640 supplemented with 2 mM glutamine, 25 mM HEPES, 10% heat inactivated fetal bovine serum, 100 U/ml penicillin, 10 mg/ml streptomycin, 5 mM R-mercaptoethanol) in a concentration 1 million cells per milliliter. The assay was performed in 96-well plates in duplicates or triplicates, where each well was pre-coated with 3 μg/ml anti-CD3 antibody for 3-5 h at 37° C. Each well was loaded with 100,000 cells. Drugs were added to the wells at the relevant concentrations. The plate was incubated for 68 h at 37° C. (95% O2, 5% CO2) and then, a media-soluble tetrazolium dye MTT was added to a final concentration of 1 mM after which the plate was incubated for additional 4 h. The plate was then centrifuged at 2,000 RPM for 10 min to pellet the insoluble purple formazan crystals. The supernatant culture media was collected, stored at −80° C. and used for analysis of cytokines using the multiplex proximity extension assay (PEA). The formazan crystal pellet was dissolved in DMSO and the plate was read within 10 min using a Multiskan MS plate reader (Labsystems) at 550 nm. The optical density value was used as the proliferation index value. Drugs were purchased from Sigma-Aldrich or Tocris (Bristol, UK).
Plasma samples, and culture media samples that were collected from plate wells at the end of the proliferation assay, were analyzed by multiplex PEA with an Olink Inflammation […] panel, targeting 92 proteins related to inflammation (Olink Proteomics, Uppsala, Sweden) as previously described (Edvinsson et al., 2017, Assarsson et al., 2014, Larsson et al., 2015, Larssen et al., 2017). Briefly, 1 μl of sample (plasma samples or cell culture media samples) or negative control was mixed with 3 μl probe solution containing a set of 92 paires DNA-oligonucleotide-conjugated antibodies. Upon recognition of a target protein by a pair of probes, the DNA oligonucletodies on the antibodies are brought in proximity and hybridize to each other, followed by enzymatic DNA polymerization to form a new DNA molecule. The newly formed DNA molecule is then amplified and quantified using a microfluidic real-time qPCR, BioMark™ HD (Fluidigm, South San Francisco, Calif., USA). The generated quantification cycle (Cq) values are normalized against spiked-in controls to convert Cq values to Normalized Protein eXpression (NPX) value on log2 scale. NPX is an arbitrary unit, which is positively correlated to protein concentration. These NPX data were then converted to linear data, using the formula 2^NPX, prior to further statistical analysis. Limit of detection (LOD) for each protein was defined as three standard deviations above the background. Proteins with levels below LOD were excluded from further data analysis.

[1] = tested on: non-responder CD4+ T cells; assay: Proliferation of anti-CD3 stimulated GABA non-responder CD4+ T cells from ND individuals; type: cell-based, human
Description: Peripheral Blood Mononuclear cells (PBMCs) are isolated from blood from donors diagnosed with Type-1 diabetes and healthy controls. Alternatively, CD4-positive cells (T-cells) are further isolated from PBMCs by e.g. MACS beads, FACS or similar technology. […] A reasonable replication, such as 3 cultures of each condition, is performed. A normalized proliferation value for each culture is then calculated by a standard proliferation measurement method, such as by CFSE staining or radioactive thymidine incorporation (requiring additional factors be added during culture) or by staining for proliferation markers.
In the FIG. 1, the proliferation of cells retrieved from 13 T1D subjects and 15 healthy controls were inspected. […] A normalized proliferation index was calculated for each culture.
The proliferation of freshly isolated human PBMCs or CD4^+ T cells was evaluated with MTT (3-(4,5-Dimethylthiazol-2-yl)-2,5-Diphenyltetrazolium Bromide) assay (Ring et al., 2012). Cells were suspended in complete medium (RPMI 1640 supplemented with 2 mM glutamine, 25 mM HEPES, 10% heat inactivated fetal bovine serum, 100 U/ml penicillin, 10 mg/ml streptomycin, 5 mM R-mercaptoethanol) in a concentration 1 million cells per milliliter. […] The formazan crystal pellet was dissolved in DMSO and the plate was read within 10 min using a Multiskan MS plate reader (Labsystems) at 550 nm. […]

[2] = GABA 100 nM, responder CD4+ T cells, normalized to control
[3] = GABA 500 nM, responder CD4+ T cells, normalized to control

## NCCCC(=O)O [GABA, gamma-aminobutyric acid]
Responder CD4+ T cells; 100 nM GABA
  number of cytokines whose release was significantly decreased: 27 cytokines
Responder CD4+ T cells; 500 nM GABA
  number of cytokines whose release was significantly decreased: 25 cytokines
Responder CD4+ T cells; [2]
  4E-BP1 in culture medium, % Mean: 67.1%
  ADA in culture medium, % Mean: 79.3%
  CASP-8 in culture medium, % Mean: 66.3%
  CCL19 in culture medium, % Mean: 68.7%
  CCL20 in culture medium, % Mean: 61.5%
  CSCP1 in culture medium, % Mean: 60.6%
  CSF-1 in culture medium, % Mean: 84.2%
  CXCL10 in culture medium, % Mean: 62.7%
  CXCL11 in culture medium, % Mean: 69.1%
  DNER in culture medium, % Mean: 94.6%
  Flt3L in culture medium, % Mean: 79.3%
  IL-6 in culture medium, % Mean: 71.6%
  IL-13 in culture medium, % Mean: 69.9%
  IL-18R1 in culture medium, % Mean: 76.1%
  IL-24 in culture medium, % Mean: 71.8%
  LAP TGF-beta-1 in culture medium, % Mean: 79.6%
  LIF in culture medium, % Mean: 66.9%
  MCP-1 in culture medium, % Mean: 76.9%
  OPG in culture medium, % Mean: 70.5%
  OSM in culture medium, % Mean: 76.4%
  STAMPB in culture medium, % Mean: 68.6%
  TNFRSF9 in culture medium, % Mean: 86.3%
  TNFSF14 in culture medium, % Mean: 70.6%
  TRAIL in culture medium, % Mean: 75.9%
  TRANCE in culture medium, % Mean: 89.3%
  μPA in culture medium, % Mean: 78.9%
Responder CD4+ T cells; [3]
  4E-BP1 in culture medium, % Mean: 50.6%
  CASP-8 in culture medium, % Mean: 61.4%
  CCL19 in culture medium, % Mean: 59.9%
  CCL20 in culture medium, % Mean: 66.0%
  CD40 in culture medium, % Mean: 77.8%
  CDCP1 in culture medium, % Mean: 44.3%
  CXCL1 in culture medium, % Mean: 72.2%
  CXCL5 in culture medium, % Mean: 66.0%
  CXCL9 in culture medium, % Mean: 62.2%
  CXCL10 in culture medium, % Mean: 60.6%
  CXCL11 in culture medium, % Mean: 66.6%
  DNER in culture medium, % Mean: 68.6%
  IFM-gamma in culture medium, % Mean: 73.2%
  IL-5 in culture medium, % Mean: 76.0%
  IL-8 in culture medium, % Mean: 81.2%
  IL-12B in culture medium, % Mean: 69.4%
  IL-13 in culture medium, % Mean: 83.0%
  IL-18R1 in culture medium, % Mean: 85.8%
  OPG in culture medium, % Mean: 66.4%
  SCF in culture medium, % Mean: 61.8%
  STAMPB in culture medium, % Mean: 57.8%
  TNF in culture medium, % Mean: 47.8%
  TNFB in culture medium, % Mean: 69.0%
  TNFSF14 in culture medium, % Mean: 60.0%
  μPA in culture medium, % Mean: 68.0%
Responder CD4+ T cells; responder group, concentration-dependent (100, 500 nM)
  number of cytokines whose secretion was decreased in total: 37 cytokines
[1]; Example 1, FIG. 1A, CD4-positive cells from 5 healthy donors, 100 nM GABA
  proliferation in the presence of GABA: did not proliferate less
[1]; Example 2, non-responder T cell population
  decrease of proliferation by GABA: did not decrease
